According to the NIST ThermoML archive (doi:10.1021/je501106d):

Details: for speed of sound: Brillouin scattering; for vapor or sublimation pressure: Closed cell (Static) method

CCCCCCC [heptane]
speed of sound [m/s], Liquid
Details	1000 kPa	2500 kPa	4000 kPa	5500 kPa	7000 kPa	8500 kPa
302.15 K	1112.9	1126.4	1139	1152	1163.2	1174.3
318.15 K	1054.1	1066.6	1079	1091	1102	1113
333.15 K	997.8	1010	1022	1034	1045	1057
348.15 K	940.3	952.9	965.3	977.6	989.7	1002
363.15 K	881.6	895.3	908.8	922	934.9	947.6
378.15 K	821.8	837.2	852.2	866.8	881	894.7
393.15 K	760.8	778.7	795.8	812.2	827.9	842.9
408.15 K	698.6	719.6	739.4	758.2	775.8	792.2
418.15 K	656.6	680	701.9	722.4	741.5	759.1
428.15 K	614	640.1	664.4	686.9	707.6	726.4
438.15 K	570.9	600	626.9	651.6	674	694.3
448.15 K	527.2	559.7	589.5	616.6	640.9	662.6
453.15 K	505.2	539.5	570.8	599.1	624.5	647
458.15 K	483.1	519.2	552.1	581.7	608.2	631.4
463.15 K	–	498.9	533.4	564.4	592	616
468.15 K	–	478.5	514.7	547.2	559.8	600.8
473.15 K	–	458	496	530	543.9	570.6
478.15 K	–	437.5	477.4	512	528.1	555.7
483.15 K	–	416.9	458.7	495.7	512.3	540.9
488.15 K	–	396.3	440	478.7	496.7	526.3
493.15 K	–	375.7	421.4	461.7	–	–
498.15 K	–	354.9	402.8	444.8	–	–
503.15 K	–	334.2	384.1	428	–	–
508.15 K	–	313.3	365.5	411.2	–	–
513.15 K	–	292.4	346.9	394.5	–	–
518.15 K	–	271.5	328.3	377.8	–	–
523.15 K	–	–	309.7	361.2	–	–
528.15 K	–	–	291.1	344.6	–	–

Details	speed of sound, Gas [m/s]	speed of sound, Liquid [m/s]	vapor or sublimation pressure, Liquid [kPa]
302.15 K	–	1108	12
318.15 K	–	1042	31
333.15 K	–	981.5	50
348.15 K	–	921.1	84
363.15 K	–	861.2	116
378.15 K	–	801.6	152
393.15 K	–	742.3	204
408.15 K	170.3	683.1	286
418.15 K	168.1	643.5	352
428.15 K	165.9	603.9	441
438.15 K	163.4	564	535
448.15 K	160.5	523.9	654
453.15 K	158.8	503.6	711
458.15 K	157	483.3	780
463.15 K	155	462.8	853
468.15 K	152.8	442.2	935
473.15 K	150.3	421.3	1022
478.15 K	147.5	400.3	1114
483.15 K	144.5	379	1203
488.15 K	141.2	357.4	1307
493.15 K	137.5	335.4	1409
498.15 K	133.4	313	1532
503.15 K	129	290.1	1649
508.15 K	124.1	266.6	1781
513.15 K	118.7	242.4	1910
518.15 K	112.8	217.3	2049
523.15 K	106.4	190.9	2201
528.15 K	99.37	162.7	2358
533.15 K	91.71	131.9	2519
536.15 K	86.78	111.1	2630
